Measurements as given in PubChem BioAssay AID1259407 (Chemical Carcinogenesis Research Information System (CCRIS), 2018).
The source made the active and inactive calls. How the calls were made is not given here.

Test system: CCRIS mutagenicity, Ames/micronucleus/aberration tests
Test: CCRIS mutagenicity studies

CN(CCCC(=O)c1cccnc1)N=O
mutagenic call (Test System: AMES SALMONELLA TYPHIMURIUM, Strain/Indicator: TA100, Metabolic Activation: NONE, Method: PREINCUBATION): inactive; negative
mutagenic call (Test System: AMES SALMONELLA TYPHIMURIUM, Strain/Indicator: TA100, Metabolic Activation: RABBIT, LIVER, S-9, Method: PREINCUBATION): active; positive
mutagenic call (Test System: AMES SALMONELLA TYPHIMURIUM, Strain/Indicator: TA100, Metabolic Activation: RABBIT, LUNG, CLARA CELLS, Method: PREINCUBATION): inactive; negative
mutagenic call (Test System: AMES SALMONELLA TYPHIMURIUM, Strain/Indicator: TA100, Metabolic Activation: RABBIT, LUNG, MACROPHAGES, Method: PREINCUBATION): inactive; negative
mutagenic call (Test System: AMES SALMONELLA TYPHIMURIUM, Strain/Indicator: TA100, Metabolic Activation: RABBIT, LUNG, TYPE II CELLS, Method: PREINCUBATION): inactive; negative
mutagenic call (Test System: AMES SALMONELLA TYPHIMURIUM, Strain/Indicator: TA100, Metabolic Activation: RAT LIVER S-9, AROCLOR 1254, Method: PREINCUBATION): inactive; negative
mutagenic call (Test System: AMES SALMONELLA TYPHIMURIUM, Strain/Indicator: TA100, Metabolic Activation: RAT, LIVER, S-9, AROCLOR 1254, Method: STANDARD PLATE): active; positive
mutagenic call (Test System: AMES SALMONELLA TYPHIMURIUM, Strain/Indicator: TA1530, Metabolic Activation: RABBIT, LIVER, S-9, Method: PREINCUBATION): active; positive
mutagenic call (Test System: AMES SALMONELLA TYPHIMURIUM, Strain/Indicator: TA1530, Metabolic Activation: RABBIT, LUNG, CLARA CELLS, Method: PREINCUBATION): inactive; negative
mutagenic call (Test System: AMES SALMONELLA TYPHIMURIUM, Strain/Indicator: TA1530, Metabolic Activation: RABBIT, LUNG, MACROPHAGES, Method: PREINCUBATION): inactive; negative
mutagenic call (Test System: AMES SALMONELLA TYPHIMURIUM, Strain/Indicator: TA1530, Metabolic Activation: RABBIT, LUNG, TYPE II CELLS, Method: PREINCUBATION): inactive; negative
mutagenic call (Test System: AMES SALMONELLA TYPHIMURIUM, Strain/Indicator: TA1535, Metabolic Activation: HAMSTER, LIVER, MICROSOMES, 3-METHYLCHOLANTHRENE, Method: PREINCUBATION): active; positive
mutagenic call (Test System: AMES SALMONELLA TYPHIMURIUM, Strain/Indicator: TA1535, Metabolic Activation: HAMSTER, LIVER, MICROSOMES, AROCLOR 1254, Method: PREINCUBATION): active; positive
mutagenic call (Test System: AMES SALMONELLA TYPHIMURIUM, Strain/Indicator: TA1535, Metabolic Activation: HAMSTER, LIVER, MICROSOMES, DEXAMETHASONE, Method: PREINCUBATION): active; positive
mutagenic call (Test System: AMES SALMONELLA TYPHIMURIUM, Strain/Indicator: TA1535, Metabolic Activation: HAMSTER, LIVER, MICROSOMES, ETHANOL, Method: PREINCUBATION): active; positive
mutagenic call (Test System: AMES SALMONELLA TYPHIMURIUM, Strain/Indicator: TA1535, Metabolic Activation: HAMSTER, LIVER, MICROSOMES, ISOSAFROL, Method: PREINCUBATION): active; positive
mutagenic call (Test System: AMES SALMONELLA TYPHIMURIUM, Strain/Indicator: TA1535, Metabolic Activation: HAMSTER, LIVER, MICROSOMES, PHENOBARBITAL, Method: PREINCUBATION): active; positive
mutagenic call (Test System: AMES SALMONELLA TYPHIMURIUM, Strain/Indicator: TA1535, Metabolic Activation: HAMSTER, LIVER, S-9, 3-METHYLCHOLANTHRENE, Method: PREINCUBATION): active; positive
mutagenic call (Test System: AMES SALMONELLA TYPHIMURIUM, Strain/Indicator: TA1535, Metabolic Activation: HAMSTER, LIVER, S-9, AROCLOR 1254, Method: PREINCUBATION): active; positive
mutagenic call (Test System: AMES SALMONELLA TYPHIMURIUM, Strain/Indicator: TA1535, Metabolic Activation: HAMSTER, LIVER, S-9, DEXAMETHASONE, Method: PREINCUBATION): active; positive
mutagenic call (Test System: AMES SALMONELLA TYPHIMURIUM, Strain/Indicator: TA1535, Metabolic Activation: HAMSTER, LIVER, S-9, ETHANOL, Method: PREINCUBATION): active; positive
mutagenic call (Test System: AMES SALMONELLA TYPHIMURIUM, Strain/Indicator: TA1535, Metabolic Activation: HAMSTER, LIVER, S-9, ISOSAFROL, Method: PREINCUBATION): active; positive
mutagenic call (Test System: AMES SALMONELLA TYPHIMURIUM, Strain/Indicator: TA1535, Metabolic Activation: HAMSTER, LIVER, S-9, PHENOBARBITAL, Method: PREINCUBATION): active; positive
mutagenic call (Test System: AMES SALMONELLA TYPHIMURIUM, Strain/Indicator: TA1535, Metabolic Activation: NONE, Method: STANDARD PLATE): inactive; negative
mutagenic call (Test System: AMES SALMONELLA TYPHIMURIUM, Strain/Indicator: TA1535, Metabolic Activation: RAT, LIVER, HEPATOCYTES, AROCLOR 1254, Method: STANDARD PLATE): active; positive
mutagenic call (Test System: AMES SALMONELLA TYPHIMURIUM, Strain/Indicator: TA1535, Metabolic Activation: RAT, LIVER, HEPATOCYTES, Method: STANDARD PLATE): active; positive
mutagenic call (Test System: AMES SALMONELLA TYPHIMURIUM, Strain/Indicator: TA1535, Metabolic Activation: RAT, LIVER, S-9, AROCLOR 1254, Method: STANDARD PLATE): active; positive
mutagenic call (Test System: AMES SALMONELLA TYPHIMURIUM, Strain/Indicator: TA1535, Metabolic Activation: RAT, LIVER, S-9, Method: STANDARD PLATE): inactive; negative
mutagenic call (Test System: AMES SALMONELLA TYPHIMURIUM, Strain/Indicator: TA1535, Metabolic Activation: RAT, TRACHEAL EPITHELIAL CELLS, AROCLOR 1254, Method: STANDARD PLATE): inactive; negative
mutagenic call (Test System: AMES SALMONELLA TYPHIMURIUM, Strain/Indicator: TA1535, Metabolic Activation: RAT, TRACHEAL EPITHELIAL CELLS, Method: STANDARD PLATE): inactive; negative
mutagenic call (Test System: AMES SALMONELLA TYPHIMURIUM, Strain/Indicator: TA7004, Metabolic Activation: HAMSTER LIVER S-9, AROCLOR 1254, Method: PREINCUBATION): active; positive
mutagenic call (Test System: AMES SALMONELLA TYPHIMURIUM, Strain/Indicator: TA7004, Metabolic Activation: NONE, Method: PREINCUBATION): inactive; negative
mutagenic call (Test System: AMES SALMONELLA TYPHIMURIUM, Strain/Indicator: TA7004, Metabolic Activation: RAT LIVER S-9, AROCLOR 1254, Method: PREINCUBATION): active; positive
mutagenic call (Test System: AMES SALMONELLA TYPHIMURIUM, Strain/Indicator: YG7108-2A6-OR, Metabolic Activation: NONE, Method: PREINCUBATION): active; positive
mutagenic call (Test System: AMES SALMONELLA TYPHIMURIUM, Strain/Indicator: YG7108-2A6, Metabolic Activation: NONE, Method: PREINCUBATION): active; positive
mutagenic call (Test System: AMES SALMONELLA TYPHIMURIUM, Strain/Indicator: YG7108-PCW, Metabolic Activation: NONE, Method: PREINCUBATION): inactive; negative
mutagenic call (Test System: AMES SALMONELLA TYPHIMURIUM, Strain/Indicator: YG7108, Metabolic Activation: RAT LIVER S-9, PHENOBARBITAL AND 5,6-BENZOFLAVONE, Method: PREINCUBATION): active; positive
mutagenic call (Test System: CHINESE HAMSTER V-79, Strain/Indicator: V-79 (HPRT)/6-THIOGUANINE, Metabolic Activation: RAT, HEPATOCYTES): active; positive
mutagenic call (Test System: CHINESE HAMSTER V-79, Strain/Indicator: V-79 (HPRT)/6-THIOGUANINE, Metabolic Activation: RAT, HEPATOMA, H4IIE CELLS): inactive; negative
mutagenic call (Test System: CHINESE HAMSTER V-79, Strain/Indicator: V-79 (HPRT)/6-THIOGUANINE, Metabolic Activation: RAT, LIVER, S-9, AROCLOR 1254): active; positive
mutagenic call (Test System: E. COLI, Strain/Indicator: NR3835, Metabolic Activation: HOST-MEDIATED, Method: IN VIVO-IN VITRO): active; positive
mutagenic call (Test System: UDS RABBIT LUNG CLARA CELLS, Strain/Indicator: THY INCORP, Metabolic Activation: NONE, Method: LIQUID SCINTILLATION COUNTING): active; positive
mutagenic call (Test System: UDS RABBIT LUNG MACROPHAGES, Strain/Indicator: THY INCORP, Metabolic Activation: NONE, Method: LIQUID SCINTILLATION COUNTING): inactive; negative
mutagenic call (Test System: UDS RABBIT LUNG TYPE II CELLS, Strain/Indicator: THY INCORP, Metabolic Activation: NONE, Method: LIQUID SCINTILLATION COUNTING): active; positive
mutagenic call (Test System: UDS RODENT HEPATOCYTES, Strain/Indicator: THY INCORP (NON-S-PHASE), Method: AUTORADIOGRAPHY): active; positive
